Reference: patent publication US12391648B2, “Pyridyloxy thioester derivative and preparation method therefor, herbicidal composition, and application” (Qingdao Kingagroot Chemical Compound Co., Ltd., priority 2018, dated 2025)

Columns and labels:
Experiment in all cases: Post-emergence test experiment (Table 3, 1000 g/ha)
Assay type in all cases: in vivo
Conditions in all cases: post-emergence spray, after 3 weeks, fresh weight inhibition
Setaria viridis = test system: Setaria viridis
Method in brief: (§1)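 Weed seeds sown in soil-filled pots in greenhouse, sprayed at 2-3 leaf stage (2 weeks after sowing) with compound in acetone/tween-80 plus methyl oleate emulsible concentrate (1.5 L/ha) diluted in water. Fresh-weight growth inhibition scored after 3 weeks on 0-5 scale (5: >85%, 0: <5%).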

Abutilon theophrasti = test system: Abutilon theophrasti
Method in brief: as §1

Leptochloa chinensis = test system: Leptochloa chinensis
Method in brief: as §1

Galium spurium = test system: Galium spurium
Method in brief: as §1

Monochoria vaginalis = test system: Monochoria vaginalis
Method in brief: as §1

Digitaria sanguinalis = test system: Digitaria sanguinalis
Method in brief: as §1

Row | SMILES | Activity level (growth inhibition rate) Setaria viridis (Setaria viridis) | Activity level (growth inhibition rate) Abutilon theophrasti (Abutilon theophrasti) | Activity level (growth inhibition rate) Leptochloa chinensis (Leptochloa chinensis) | Activity level (growth inhibition rate) Galium spurium (Galium spurium) | Activity level (growth inhibition rate) Monochoria Vaginalis (Monochoria vaginalis) | Activity level (growth inhibition rate) Digitaria sanguinalis (Digitaria sanguinalis)
1 | CC(Oc1nc(F)c(Cl)c(N)c1Cl)C(=O)SC(N)=O (stereo not drawn) [Compound 100] | 5 (Level 5: the growth inhibition rate is greater than 85%) | 5 (Level 5: the growth inhibition rate is greater than 85%) | 5 (Level 5: the growth inhibition rate is greater than 85%) | 5 (Level 5: the growth inhibition rate is greater than 85%) | 5 (Level 5: the growth inhibition rate is greater than 85%) | 5 (Level 5: the growth inhibition rate is greater than 85%)
2 | CCOC(=O)SC(=O)C(C)Oc1nc(F)c(Cl)c(N)c1Cl (stereo not drawn) [Compound 101] | 5 (Level 5: the growth inhibition rate is greater than 85%) | 5 (Level 5: the growth inhibition rate is greater than 85%) | 5 (Level 5: the growth inhibition rate is greater than 85%) | 5 (Level 5: the growth inhibition rate is greater than 85%) | 5 (Level 5: the growth inhibition rate is greater than 85%) | 5 (Level 5: the growth inhibition rate is greater than 85%)
3 | CC(C)=NSC(=O)C(C)Oc1nc(F)c(Cl)c(N)c1Cl (stereo not drawn) [Compound 102] | 5 (Level 5: the growth inhibition rate is greater than 85%) | 5 (Level 5: the growth inhibition rate is greater than 85%) | 5 (Level 5: the growth inhibition rate is greater than 85%) | 5 (Level 5: the growth inhibition rate is greater than 85%) | 5 (Level 5: the growth inhibition rate is greater than 85%) | 5 (Level 5: the growth inhibition rate is greater than 85%)
4 | CC(Oc1nc(F)c(Cl)c(N)c1Cl)C(=O)SC(N)C(=O)O (stereo not drawn) [Compound 103] | 5 (Level 5: the growth inhibition rate is greater than 85%) | 5 (Level 5: the growth inhibition rate is greater than 85%) | 5 (Level 5: the growth inhibition rate is greater than 85%) | 5 (Level 5: the growth inhibition rate is greater than 85%) | 5 (Level 5: the growth inhibition rate is greater than 85%) | 5 (Level 5: the growth inhibition rate is greater than 85%)
5 | COC(=O)C(NC(=O)OC(C)(C)C)SC(=O)C(C)Oc1nc(F)c(Cl)c(N)c1Cl (stereo not drawn) [Compound 104] | 5 (Level 5: the growth inhibition rate is greater than 85%) | 5 (Level 5: the growth inhibition rate is greater than 85%) | 5 (Level 5: the growth inhibition rate is greater than 85%) | 5 (Level 5: the growth inhibition rate is greater than 85%) | 5 (Level 5: the growth inhibition rate is greater than 85%) | 5 (Level 5: the growth inhibition rate is greater than 85%)
6 | CC(Oc1nc(F)c(Cl)c(N)c1Cl)C(=O)SS(C)(=O)=O (stereo not drawn) [Compound 105] | 5 (Level 5: the growth inhibition rate is greater than 85%) | 5 (Level 5: the growth inhibition rate is greater than 85%) | 5 (Level 5: the growth inhibition rate is greater than 85%) | 5 (Level 5: the growth inhibition rate is greater than 85%) | 5 (Level 5: the growth inhibition rate is greater than 85%) | 5 (Level 5: the growth inhibition rate is greater than 85%)
7 | CC(Oc1nc(F)c(Cl)c(N)c1Cl)C(=O)SC1CCCO1 (stereo not drawn) [Compound 106] | 5 (Level 5: the growth inhibition rate is greater than 85%) | 5 (Level 5: the growth inhibition rate is greater than 85%) | 5 (Level 5: the growth inhibition rate is greater than 85%) | 5 (Level 5: the growth inhibition rate is greater than 85%) | 5 (Level 5: the growth inhibition rate is greater than 85%) | 5 (Level 5: the growth inhibition rate is greater than 85%)
8 | CC(Oc1nc(F)c(Cl)c(N)c1Cl)C(=O)Sc1ccccc1 (stereo not drawn) [Compound 107] | 5 (Level 5: the growth inhibition rate is greater than 85%) | 5 (Level 5: the growth inhibition rate is greater than 85%) | 5 (Level 5: the growth inhibition rate is greater than 85%) | 5 (Level 5: the growth inhibition rate is greater than 85%) | 5 (Level 5: the growth inhibition rate is greater than 85%) | 5 (Level 5: the growth inhibition rate is greater than 85%)
9 | Cc1ccccc1SC(=O)C(C)Oc1nc(F)c(Cl)c(N)c1Cl (stereo not drawn) [Compound 108] | 5 (Level 5: the growth inhibition rate is greater than 85%) | 5 (Level 5: the growth inhibition rate is greater than 85%) | 5 (Level 5: the growth inhibition rate is greater than 85%) | 5 (Level 5: the growth inhibition rate is greater than 85%) | 5 (Level 5: the growth inhibition rate is greater than 85%) | 5 (Level 5: the growth inhibition rate is greater than 85%)
10 | CC(Oc1nc(F)c(Cl)c(N)c1Cl)C(=O)Sc1cccc(N(C)C)c1 (stereo not drawn) [Compound 109] | 5 (Level 5: the growth inhibition rate is greater than 85%) | 5 (Level 5: the growth inhibition rate is greater than 85%) | 5 (Level 5: the growth inhibition rate is greater than 85%) | 5 (Level 5: the growth inhibition rate is greater than 85%) | 5 (Level 5: the growth inhibition rate is greater than 85%) | 5 (Level 5: the growth inhibition rate is greater than 85%)
11 | CC(Oc1nc(F)c(Cl)c(N)c1Cl)C(=O)Sc1cccc(Cl)c1 (stereo not drawn) [Compound 110] | 5 (Level 5: the growth inhibition rate is greater than 85%) | 5 (Level 5: the growth inhibition rate is greater than 85%) | 5 (Level 5: the growth inhibition rate is greater than 85%) | 5 (Level 5: the growth inhibition rate is greater than 85%) | 5 (Level 5: the growth inhibition rate is greater than 85%) | 5 (Level 5: the growth inhibition rate is greater than 85%)
12 | COc1ccc(SC(=O)C(C)Oc2nc(F)c(Cl)c(N)c2Cl)cc1 (stereo not drawn) [Compound 111] | 5 (Level 5: the growth inhibition rate is greater than 85%) | 5 (Level 5: the growth inhibition rate is greater than 85%) | 5 (Level 5: the growth inhibition rate is greater than 85%) | 5 (Level 5: the growth inhibition rate is greater than 85%) | 5 (Level 5: the growth inhibition rate is greater than 85%) | 5 (Level 5: the growth inhibition rate is greater than 85%)
13 | CC(Oc1nc(F)c(Cl)c(N)c1Cl)C(=O)Sc1ccc(C(F)(F)F)cc1 (stereo not drawn) [Compound 112] | 5 (Level 5: the growth inhibition rate is greater than 85%) | 5 (Level 5: the growth inhibition rate is greater than 85%) | 5 (Level 5: the growth inhibition rate is greater than 85%) | 5 (Level 5: the growth inhibition rate is greater than 85%) | 5 (Level 5: the growth inhibition rate is greater than 85%) | 5 (Level 5: the growth inhibition rate is greater than 85%)
14 | CC(Oc1nc(F)c(Cl)c(N)c1Cl)C(=O)Sc1cccc(C(C)C)c1 (stereo not drawn) [Compound 113] | 5 (Level 5: the growth inhibition rate is greater than 85%) | 5 (Level 5: the growth inhibition rate is greater than 85%) | 5 (Level 5: the growth inhibition rate is greater than 85%) | 5 (Level 5: the growth inhibition rate is greater than 85%) | 5 (Level 5: the growth inhibition rate is greater than 85%) | 5 (Level 5: the growth inhibition rate is greater than 85%)
